Source: US20180305524A1, “Inulin Nanofibers” (The American University in Cairo, priority 2014, published 2018)

Tests used:
gut bifidobacteria = conditions: IBS patients; cited from earlier work
[1] = system: bifidobacteria and lactobacillus; conditions: in vitro; cited from earlier work
S. aureus = experiment: Antibacterial activity, cork-borer method, inhibition zone with S. aureus; assay type: cell-based
Description: (§1) Polyvinyl Alcohol (PVA)/Inulin nanofibers are manufactured using electrospinning technique and tested for their prebiotic activity with Lactobacillus sp. and antibacterial activity with E. coli and S. aureus. After characterization and cross-linking of the produced PVA/Inulin Electrospun composite nanofibers (CNF), they were tested for their prebiotic activity with Lactobacillus sp. by viable count, optical density, pH and growth curve, and antibacterial activity with E. coli and S. aureus, by the cork-borer method, measuring the inhibition zone and the inhibition curve.
(§2) FIGS. 4A-B show according to an exemplary embodiment of the invention in FIG. 4A an inhibition zone of PVA electrospun Nanofibers, inulin solution, PVA/Inulin electrospun CNFs, antibiotic and water with E. coli, in FIG. 4B an inhibition zone of PVA electrospun Nanofibers, inulin solution, PVA/Inulin electrospun CNFs, antibiotic and water with S. aureus.

Lactobacillus sp. = experiment: Prebiotic activity with Lactobacillus sp. culture (total viable count, pH, optical density after 24 hours incubation); assay type: cell-based
Description: as §1
FIGS. 2A-C show according to an exemplary embodiment of the invention in FIG. 2A Total viable count, FIG. 2B pH, and FIG. 2C Optical density of Lactobacillus sp. culture containing PVA electrospun Nanofibers, inulin solution, PVA/Inulin electrospun CNFs, and water after 24 hours of incubation.
Prebiotic activity was carried out using Lactobacillus sp. to assess the growth activity by calculating the i) total viable counts, ii) pH, iii) optical density (OD), and iv) growth curve.
The pH and the OD of the culture inoculated with the tested material were measured before incubation and after 24 hours incubation. PVA/Inulin electrospun CNFs solution decreased the pH to 5.7 compared to 6.3 for the control.

E. coli = experiment: Antibacterial activity, cork-borer method, inhibition zone with E. coli; assay type: cell-based
Description: as §1, §2

[2] = system: Bifidobacterium bifidum culture; conditions: inulin extracted from artichoke; cited from earlier work

Substance	effectiveness as a prebiotic (gut bifidobacteria)	prebiotic effectiveness [1]	inhibition zone (S. aureus)	pH of the culture (Lactobacillus sp.; after 24 hours incubation, control 6.3)	lactobacillus growth (total viable count) (Lactobacillus sp.; after 24 hours of incubation)	inhibition zone (E. coli)	growth of B. bifidum [2]
galactooligosaccharides	effective as a prebiotic	–	–	–	–	–	–
oligofructose [oligofructose (OF)]	–	clear prebiotic effectiveness	–	–	–	–	–
inulin [inulin solution]	–	clear prebiotic effectiveness	didn't show any visible zone of inhibition	6.2	2.9×10^3 cfu/mL	didn't show any visible zone of inhibition	increased the growth
